Entries after “also recorded” stand apart in the source; their conditions may differ.
Tests used:
Assay type in all cases: in vivo, rat
[1] = system: castrate Sprague-Dawley male rats; assay: Androgenic activity, Hershberger test (ventral prostate weight); settings: for Biological activity Potency Ratio: oral in 10% ethanol/sesame oil, methyltestosterone standard = 1.00, FIG. 11
Method: The androgenic activity was tested as follows (see, Hershberger et al., Proc. Soc. Exptl. Biol. Med., 83: 175-180 (1953)). Immature (approximately 21 day old) male rats of the Sprague-Dawley strain were orchidectomized under METOFANE® anesthesia and randomly assigned to groups of ten animals for each dose level of test material and vehicle controls. Animals were maintained under standard conditions of housing and had free access to food and water. Illumination was controlled for 14-hour periods of light and 10 hours of darkness. Test compounds were dissolved in 10% ethanol/sesame oil and administered by gavage (oral) or subcutaneous injection daily for seven consecutive days starting on the day of surgery. Animals were sacrificed 24 hours after the last dose and the ventral prostate and seminal vesicles excised, cleaned of fat and connective tissue, blotted on moist filter paper and weighed to the nearest 0.1 mg. Ventral prostate weight was used as the endpoint because ventral prostate is the more sensitive organ to androgenic stimulation.
Statistical analysis was performed by conventional methods using a PROPHET data management system operating on SUN Microsystems OS 4.1.1 (see e.g., Bliss, Cl (1952) The Statistics of Bioassay, New York, Academic Press; Hollister, C (1988), Nucleic Acids Research, 16:1873-1875.
Each data point represents the mean (n=10) and standard error of the mean (SEM) prostate weight for each dose level. The potency ratio and 95% confidence index are set forth below.

[2] = system: castrate Sprague-Dawley male rats; assay: Duration of androgenic activity after a single subcutaneous injection (ventral prostate weight, AUC); settings: for AUC of ventral prostate weight (duration of androgenic activity), standards: historical data, 1.2 mg single subcutaneous injection, testosterone undecanoate in aqueous suspension, testosterone enanthate in sesame oil; for Duration of androgenic activity (in words): single subcutaneous injection in aqueous vehicle; for AUC of ventral prostate weight (duration of androgenic activity): 14 weeks
Method: Duration of androgenic activity was determined as follows. Immature (22 days of age) male rats of the Sprague-Dawley CD strain were orchidectomized under METOFANE anesthesia and randomly assigned to groups of forty or more animals. Animals were maintained under standard conditions of housing and had free access to food and water. Illumination was controlled for 14-hour periods of light and 10 hours of darkness. Animals received a single subcutaneous injection of 0.6 mg of test material in aqueous suspending vehicle (ASV) and/or an oily vehicle (10% ethanol/sesame oil, sesame oil containing 5 mg/ml chlorobutanol as a preservative or ethyl oleate) on the day of surgery. Controls received vehicle alone. Testosterone enanthate in sesame oil was used as a standard. In cases where the test material was not solid at room temperature, i.e., a wax or oil, 10% ethanol/sesame oil or ethyl oleate was used as a vehicle. Five rats from each group were sacrificed at weekly or biweekly intervals and seminal vesicle and ventral prostate glands were excised, cleaned of adherent fat and connective tissue and weighed to the nearest 0.1 mg. Ventral prostate weight was used as the endpoint because it is the more sensitive organ to androgenic stimulation. Area under the curve (AUC) was calculated by the trapezoidal rule.
Each data point represents the mean (n=5) and standard error of the mean (SEM) prostate weight for each time period. […] In FIG. 8, the data for 1.2 mg dose groups are shown together with historical data for testosterone undecanoate in aqueous suspension and testosterone enanthate in sesame oil as standards. Both testosterone undecanoate and testosterone enanthate are commercially available.

[3] = Serum levels of dimethandrolone (CDB-1321) and immunoreactive metabolites by radioimmunoassay; parameters: AUC of serum concentration of dimethandrolone and immunoreactive metabolites: unit not given here; settings: for AUC of serum concentration of dimethandrolone and immunoreactive metabolites: n=5, FIG. 9
Method: Serum levels of testosterone and CDB-1321 were determined as follows. Rats from a duration of androgenic activity study were exsanguinated at autopsy, serum prepared by allowing blood to clot at room temperature and the sample frozen for subsequent radioimmunoassay. A radioimmunoassay for the free alcohol, 7a, 11β-dimethyl-19-nortestosterone, was developed using antisera generated in rabbits against the 3-carboxymethyloxime-BSA conjugate and employing the corresponding histamine conjugate for iodination as tracer.

[4] = system: luteinizing hormone (rLH); assay: Serum rLH in castrate male rats
Method: FIG. 14 depicts the serum levels of rLH as a function of time for groups 2 and 4 of the animals. Serum rLH were measured in the blood from castrate male rats following fourteen daily 12 mg/kg oral doses of CDB-4719A (dimethandrolone 17β-decylcarbonate, filled circles, group 2) or CDB-4521C (dimethandrolone 17β-undecanoate, open triangles, group 4) in 10% ethanol/sesame oil on days 0-13. Samples from weeks −1 to 6 or from weeks 7 to 9 and repeats were assayed as described in the protocols MEL-480AD using [^125I]-rLH or MEL-480AE, AG using [^125I]-rLH. The limit of detection shown as dotted line, or EC90, was the mean of 0.13, 0.14, or 0.16 in the first assay and 0.17, 0.22, or 0.21 ng/ml in the second series of assays based on 200 μl of serum per tube.
FIG. 15 depicts the serum levels of rLH as a function of time for groups 1 and 3 of the animals. Serum rLH were measured in the blood from castrate male rats following a single 12 mg/kg subcutaneous injection of CDB-4719A (dimethandrolone 17β-decylcarbonate, filled circles, group 1) or CDB-4521C (dimethandrolone 17β-undecanoate, open triangles, group 3) in an aqueous suspending vehicle on day 0. Samples from weeks −1 to 6 or from weeks 7 to 22 and repeats were assayed as described in the protocols MEL-480AD using [^125I]-rLH or MEL-480AE, AG, AH using [^125I]-rLH. The limit of detection shown as dotted line, or EC90, was the mean of 0.13, 0.14, or 0.16 in the first assay and 0.17, 0.22, or 0.21 ng/ml in the second series of assays based on 200 μl of serum per tube.
Carbonates of the invention, in embodiments, can be used to suppress luteinizing hormone in a mammal for extended periods of time. […] CDB-4719A (dimethandrolone 17β-decylcarbonate) was administered to castrate male rats, daily at 12 mg/kg oral doses, and CDB-4521C (dimethandrolone 17β-undecanoate) was administered in 10% ethanol/sesame oil, on days 0-13. […] This observation could have advantageous clinical implications, for example, in obtaining sustained suppression of the luteinizing hormone or hormone replacement therapy. In addition, this could have an advantage by providing a facile treatment using oral compositions such as tablets or capsules of the carbonates of the invention in suppressing hormone levels. Such treatment can be advantageous relative to a treatment involving parenteral (e.g., subcutaneous) administration of a drug such as the ester drug. Patient compliance is better with oral formulations than injections.
FIG. 15 provides a comparison between CDB-4719A (dimethandrolone 17β-decylcarbonate) and CDB-4521C (dimethandrolone 17β-undecanoate). A single dose (12 mg/kg) of the compound was administered to castrate male rats by subcutaneous injection in an aqueous suspending vehicle on day 0. The serum rLH concentration was monitored over a 22-week period and beyond.

[5] = fourteen daily 12 mg/kg oral doses in 10% ethanol/sesame oil, days 0-13, FIG. 14
[6] = single subcutaneous injection of 0.6 mg in aqueous suspending vehicle
[7] = single subcutaneous injection of 1.2 mg in aqueous suspending vehicle
[8] = oral, daily for 7 days in 10% ethanol/sesame oil, CDB 110 (methyltestosterone) = 1.000 assigned, FIG. 5, ranges did not pass all significance tests
[9] = subcutaneous injection, daily for 7 days, CBD-111 (testosterone) = 1.000 assigned, FIG. 6, footnote 2 values did not pass all significance tests

Compound: C[C@]12CCC(=O)C=C1CC[C@@H]1[C@@H]2CC[C@@]2(C)[C@H]1CC[C@]2(C)O [CDB-110B, methyltestosterone, reference compound]
- Biological activity Potency Ratio [1]: 1.00 (assigned)

Compound: CCCCCCC(=O)O[C@H]1CC[C@H]2[C@@H]3CCC4=CC(=O)CC[C@]4(C)[C@H]3CC[C@]12C [CDB-112, testosterone enanthate, reference compound]
- AUC of ventral prostate weight (duration of androgenic activity), standards [2]: 760 mg·week

Compound: C[C@@H]1CC2=CC(=O)CC[C@@H]2[C@@H]2[C@@H]1[C@@H]1CC[C@H](O)[C@@]1(C)C[C@@H]2C [CDB-1321, 7a, 11β-dimethyl-19-nortestosterone, reference compound]
- Serum levels of the free alcohol after giving the free alcohol itself ([3]; first 3 weeks, limit of detection 63 pg/ml): barely above the limit of detection

Compound: CCCCCCCCCCC(=O)O[C@H]1CC[C@H]2[C@@H]3CCC4=CC(=O)CC[C@]4(C)[C@H]3CC[C@]12C [CDB-3122E, testosterone undecanoate, reference compound]
- AUC of ventral prostate weight (duration of androgenic activity), standards [2]: 494 mg·week

Compound: CCCCCCCCCCC(=O)O[C@H]1CC[C@H]2[C@H]3[C@H]([C@@H](C)C[C@]12C)[C@H]1CCC(=O)C=C1C[C@H]3C [CDB-4521C, dimethandrolone 17β-undecanoate, reference compound]
- Serum rLH after administration was discontinued [4, 5]: bounced back and increased beyond the pretreatment level
- Serum rLH during administration [4, 5]: remained suppressed
- Serum rLH up to 16 weeks post administration ([4]; single 12 mg/kg subcutaneous injection in aqueous suspending vehicle on day 0, FIG. 15): remains suppressed
- Serum rLH after 16 weeks ([4]; single 12 mg/kg subcutaneous injection in aqueous suspending vehicle on day 0, monitored over 22 weeks, FIG. 15): rose after 16 weeks

Compound: COC(=O)O[C@H]1CC[C@H]2[C@H]3[C@H]([C@@H](C)C[C@]12C)[C@H]1CCC(=O)C=C1C[C@H]3C [CDB-4718, 17β-Methoxycarbonyloxy-7α,11β-dimethylestr-4-en-3-one]
- AUC of serum concentration of dimethandrolone and immunoreactive metabolites [3, 6]: 2848
- AUC of serum concentration of dimethandrolone and immunoreactive metabolites [3, 7]: 3336
- Androgenic activity Potency Ratio [1, 8]: about two and one-half times
- Androgenic activity Potency Ratio ([1]; oral, daily for 7 days in 10% ethanol/sesame oil, CDB 110 (methyltestosterone) = 1.000 assigned, FIG. 5, ranges did not pass all significance tests, listed as 4718): 2.609^1
- Androgenic activity Potency Ratio [1, 9]: 10.4-47.5
- Androgenic activity Potency Ratio ([1]; subcutaneous injection, daily for 7 days, CBD-111 (testosterone) = 1.000 assigned, FIG. 6, footnote 2 values did not pass all significance tests, listed as 4718): 10.4-47.5^1,2
- Duration of androgenic activity (in words) [2]: short duration of action
- AUC of ventral prostate weight (duration of androgenic activity) [2, 6]: 581 mg·week
- AUC of ventral prostate weight (duration of androgenic activity) [2, 7]: 789 mg·week

Compound: CCCCCCCCCCCCOC(=O)O[C@H]1CC[C@H]2[C@H]3[C@H]([C@@H](C)C[C@]12C)[C@H]1CCC(=O)C=C1C[C@H]3C [CDB-4730, 17β-Dodecyloxycarbonyloxy-7α,11β-dimethylestr-4-en-3-one]
- Serum levels of dimethandrolone and immunoreactive metabolites over time ([3]; single subcutaneous dose of 0.6 or 1.2 mg per rat in aqueous suspending vehicle, FIG. 16): decreased with time as expected
- Androgenic activity Potency Ratio [1, 8]: 0.97-3.82
- Androgenic activity Potency Ratio ([1]; oral, daily for 7 days in 10% ethanol/sesame oil, CDB 110 (methyltestosterone) = 1.000 assigned, FIG. 5, ranges did not pass all significance tests, listed as 4730): 0.97-3.82^1,2
- Potency as percent of the subcutaneous standard, testosterone ([1]; subcutaneous injection): 5%
- Androgenic activity Potency Ratio [1, 9]: 0.05^1,2
- Duration of androgenic activity (in words) [2]: far more potent; also recorded: exhibited similar long-acting activity

Compound: CCCCCCOC(=O)O[C@H]1CC[C@H]2[C@H]3[C@H]([C@@H](C)C[C@]12C)[C@H]1CCC(=O)C=C1C[C@H]3C [CDB-4731, 17β-Hexyloxycarbonyloxy-7α,11β-dimethylestr-4-en-3-one]
- Androgenic activity Potency Ratio [1, 8]: 1.18-3.27
- Androgenic activity Potency Ratio ([1]; oral, daily for 7 days in 10% ethanol/sesame oil, CDB 110 (methyltestosterone) = 1.000 assigned, FIG. 5, ranges did not pass all significance tests, listed as 4731): 1.18-3.27^1,2
- Androgenic activity Potency Ratio [1, 9]: 32
- Androgenic activity Potency Ratio ([1]; subcutaneous injection, daily for 7 days, CBD-111 (testosterone) = 1.000 assigned, FIG. 6, footnote 2 values did not pass all significance tests, listed as 4731): 32.0^1,2

Compound: CC1C[C@@]2(C)C(=CC[C@@H]2OC(=O)OC23CC4CC(CC(C4)C2)C3)[C@H]2[C@H]1[C@H]1CCC(=O)C=C1C[C@H]2C (stereo partly drawn) [CDB-4750A, 17β-Adamantyloxycarbonyloxy-7α,11-dimethylestra-4,14-dien-3-one]
- AUC of ventral prostate weight (duration of androgenic activity) [2, 6]: 326 mg·week
- AUC of ventral prostate weight (duration of androgenic activity) [2, 7]: 759 mg·week

Compound: CCCCCCCCCCCCOC(=O)OC1CC[C@H]2[C@@H]3CCC4=CC(=O)CC[C@@H]4[C@H]3[C@@H](C)C[C@]12C (stereo partly drawn) [CDB-4754, 11β-Methyl-17-dodecyloxycarbonyloxy estr-4-en-3-one]
- AUC of ventral prostate weight (duration of androgenic activity) [2, 6]: 564 mg·week
- AUC of ventral prostate weight (duration of androgenic activity) [2, 7]: 974 mg·week

Compound: CCCCCCCCCC(=O)OC1CCC2C3C(C)CC4=CC(=O)CCC4C3C(C)CC12C (stereo not drawn) [CDB-4756, dimethandrolone decanoate, reference compound]
- Biological activity Potency Ratio [1]: 2.13-7.56

Compound: CCCCCCCCCCOC(=O)O[C@H]1CC[C@H]2[C@@H]3CCC4=CC(=O)CC[C@@H]4[C@H]3[C@@H](C)C[C@]12C [CDB-4757, 11β-Methyl-17β-decyloxycarbonyloxyestr-4-en-3-one]
- Biological activity Potency Ratio [1]: 1.96

From patent US7820642B2, “Nandrolone 17β-carbonates” (The United States of America as represented by the …, priority 2005, dated 2010)
